From patent US9428464B2, “Kynurenine-3-monooxygenase inhibitors, pharmaceutical compositions, and methods of use thereof” (CHDI Foundation, Inc., priority 2011, dated 2016)

Tested on: KMO
Experiment: KMO activity assay: L-Kynurenine hydroxylation to 3-Hydroxy-Kynurenine, quantified by LC/MS
Type: biochemical
Details: compound at 10 uM; footnote: some portion of activity of amides may be due to contribution of acid precursor
Method: A generalized procedure for monitoring L-Kynurenine (KYN) hydroxylation to form product 3-Hydroxy-Kynurenine (3OH-KYN) by LC/MS is described below. Product is quantified by multiple reaction monitoring using MS.
A method of monitoring L-Kynurenine (KYN) hydroxylation to form product 3-Hydroxy-Kynurenine (3OH-KYN) by LC/MS is described below. Product is quantified by multiple reaction monitoring.
• Compound: Stock concentrations: 10 mM in 100% DMSO • Enzyme: KMO enzyme prepared at Evotec via mitochondria isolation from CHO-GST HIS KMO cells • Substrate: L-Kynurenine (Sigma: Cat #K3750) • [stock concentration: 10 mM in 100 mM potassium phosphate buffer, pH 7.4]
A method of monitoring L-Kynurenine (KYN) hydroxylation to form 3-Hydroxy-Kynurenine (3OH-KYN) by LC/MS is described. Product is quantified by multiple reaction monitoring (MRM method).

Row | SMILES | % Inhibition at 10 uM [%]
1 | O=C1CN(C(=O)CNC(=O)c2cc(-c3ccc(Cl)c(Cl)c3)ncn2)CCN1 [6-(3,4-Dichloro-phenyl)-pyrimidine-4-carboxylic acid [2-oxo-2-(3-oxo-piperazin-1-yl)-ethyl]-amide] | 62.23
2 | CC1CN(c2cccc(NC(=O)c3cc(-c4ccc(Cl)c(Cl)c4)ncn3)c2)CC(C)O1 (centres unmarked) [6-(3,4-Dichloro-phenyl)-pyrimidine-4-carboxylic acid [3-(2,6-dimethyl-morpholin-4-yl)-phenyl]-amide] | 57.56
3 | CN1CCN(c2cccc(NC(=O)c3cc(-c4ccc(Cl)c(Cl)c4)ncn3)c2)CC1.Cl [6-(3,4-Dichloro-phenyl)-pyrimidine-4-carboxylic acid [3-(4-methyl-piperazin-1-yl)-phenyl]-amide hydrochloride salt] | 85.89
4 | CN1CCN(c2cccc(NC(=O)c3cc(-c4ccc(Cl)c(Cl)c4)ncn3)c2)CC1 [6-(3,4-Dichloro-phenyl)-pyrimidine-4-carboxylic acid [3-(4-methyl-piperazin-1-yl)-phenyl]-amide] | 75.48
5 | CC1CN(c2ccc(NC(=O)c3cc(-c4ccc(Cl)c(Cl)c4)ncn3)cc2)CC(C)O1.Cl (centres unmarked) [6-(3,4-Dichloro-phenyl)-pyrimidine-4-carboxylic acid [4-(2,6-dimethyl-morpholin-4-yl)-phenyl]-amide hydrochloride salt] | 97.61
6 | Cl.O=C(Nc1ccc(OCCN2CCOCC2)cc1)c1cc(-c2ccc(Cl)c(Cl)c2)ncn1 [6-(3,4-Dichloro-phenyl)-pyrimidine-4-carboxylic acid [4-(2-morpholin-4-yl-ethoxy)-phenyl]-amide hydrochloride salt] | 90.48
7 | O=C(Nc1ccc(OCCN2CCOCC2)cc1)c1cc(-c2ccc(Cl)c(Cl)c2)ncn1 [6-(3,4-Dichloro-phenyl)-pyrimidine-4-carboxylic acid [4-(2-morpholin-4-yl-ethoxy)-phenyl]-amide] | 100.44
8 | CN1CCN(c2ccc(NC(=O)c3cc(-c4ccc(Cl)c(Cl)c4)ncn3)cc2)CC1.Cl [6-(3,4-Dichloro-phenyl)-pyrimidine-4-carboxylic acid [4-(4-methyl-piperazin-1-yl)-phenyl]-amide hydrochloride salt] | 89.6
9 | CC(C)(O)c1nnc(NC(=O)c2cc(-c3ccc(Cl)c(Cl)c3)ncn2)o1 [6-(3,4-Dichloro-phenyl)-pyrimidine-4-carboxylic acid [5-(1-hydroxy-1-methyl-ethyl)-[1,3,4]oxadiazol-2-yl]-amide] | 102.115
10 | Cl.O=C(Nc1ccc(OCCN2CCOCC2)nc1)c1cc(-c2ccc(Cl)c(Cl)c2)ncn1 [6-(3,4-Dichloro-phenyl)-pyrimidine-4-carboxylic acid [6-(2-morpholin-4-yl-ethoxy)-pyridin-3-yl]-amide hydrochloride salt] | 86.37
11 | CNC(=O)c1cc(-c2ccc(Cl)c(Cl)c2)ncn1 [6-(3,4-Dichloro-phenyl)-pyrimidine-4-carboxylic acid methylamide] | 100.31
12 | O=C(Nc1ncco1)c1cc(-c2ccc(Cl)c(Cl)c2)ncn1 [6-(3,4-Dichloro-phenyl)-pyrimidine-4-carboxylic acid oxazol-2-yl-amide] | 101.04
13 | O=C(Nc1cnccn1)c1cc(-c2ccc(Cl)c(Cl)c2)ncn1 [6-(3,4-Dichloro-phenyl)-pyrimidine-4-carboxylic acid pyrazin-2-yl-amide] | 100.28
14 | O=C(Nc1cccnn1)c1cc(-c2ccc(Cl)c(Cl)c2)ncn1 [6-(3,4-Dichloro-phenyl)-pyrimidine-4-carboxylic acid pyridazin-3-yl-amide] | 100.38
15 | Cc1nc(C(=O)O)cc(-c2ccc(F)c(F)c2)n1 [6-(3,4-Difluoro-phenyl)-2-methyl-pyrimidine-4-carboxylic acid] | 100
16 | C[C@H](NC(=O)c1cc(-c2ccc(F)c(F)c2)ncn1)c1ccccc1 [6-(3,4-Difluoro-phenyl)-pyrimidine-4-carboxylic acid ((S)-1-phenyl-ethyl)-amide] | 100.39
17 | CON(C)C(=O)c1cc(-c2ccc(Cl)c(Cl)c2)ncn1 [6-(3,4-dichloro-phenyl)-pyrimidine-4-carboxylic acid methoxy-methyl-amide] | 103.74
18 | O=C(O)c1ncnc(-c2ccc(Cl)c(Cl)c2)c1CO [6-(3,4-dichlorophenyl)-5-(hydroxymethyl)pyrimidine-4-carboxylate] | 95
19 | O=C(NO)c1cc(-c2ccc(Cl)c(Cl)c2)ncn1 [6-(3,4-dichlorophenyl)-N-hydroxypyrimidine-4-carboxamide] | 73
20 | Cc1nnc(NC(=O)c2cc(-c3cccc(Br)c3)ncn2)o1 [6-(3-Bromo-phenyl)-pyrimidine-4-carboxylic acid (5-methyl-[1,3,4]oxadiazol-2-yl)-amide] | 102.59
21 | O=C(O)c1cc(-c2cccc(Br)c2)ncn1 [6-(3-Bromo-phenyl)-pyrimidine-4-carboxylic acid] | 102.1

Row | SMILES | % Inhibition at 10 uM [%]
22 | O=C(Nc1cccnc1)c1cc(-c2cccc(Cl)c2F)ncn1 [6-(3-Chloro-2-fluoro-phenyl)-pyrimidine-4-carboxylic acid pyridin-3-yl-amide] | 100.83
23 | C[C@H](NC(=O)c1cc(-c2ccc(F)c(Cl)c2)ncn1)c1ccccc1 [6-(3-Chloro-4-fluoro-phenyl)-pyrimidine-4-carboxylic acid ((S)-1-phenyl-ethyl)-amide] | 89.07
24 | Cc1noc(C)c1NC(=O)c1cc(-c2cccc(Cl)c2)ncn1 [6-(3-Chloro-phenyl)-pyrimidine-4-carboxylic acid (3,5-dimethyl-isoxazol-4-yl)-amide] | 89.92
25 | C[C@H](NC(=O)c1cc(-c2cccc(Cl)c2)ncn1)c1ccncc1 [6-(3-Chloro-phenyl)-pyrimidine-4-carboxylic acid ((S)-1-pyridin-4-yl-ethyl)-amide] | 96.86
26 | C[C@H](NC(=O)c1cc(-c2cccc(F)c2)ncn1)c1ccccc1 [6-(3-Fluoro-phenyl)-pyrimidine-4-carboxylic acid ((S)-1-phenyl-ethyl)-amide] | 90.15
27 | O=C(Nc1cncnc1)c1cc(-c2cccc(F)c2)ncn1 [6-(3-Fluoro-phenyl)-pyrimidine-4-carboxylic acid pyrimidin-5-yl-amide] | 81.88
28 | Cc1ccc(NC(=O)c2cc(-c3ccc(Cl)c(F)c3)ncn2)c(C)n1 [6-(4-Chloro-3-fluoro-phenyl)-pyrimidine-4-carboxylic acid (2,6-dimethyl-pyridin-3-yl)-amide] | 52.81
29 | C[C@H](NC(=O)c1cc(-c2ccc(Cl)c(F)c2)ncn1)c1ccccc1 [6-(4-Chloro-3-fluoro-phenyl)-pyrimidine-4-carboxylic acid ((S)-1-phenyl-ethyl)-amide] | 46.62
30 | C[C@H](NC(=O)c1cc(-c2ccc(Cl)cc2)ncn1)c1ccccc1 [6-(4-Chloro-phenyl)-pyrimidine-4-carboxylic acid ((S)-1-phenyl-ethyl)-amide] | 68.94
31 | O=C(Nc1cccnc1)c1cc(-c2ccc(Cl)cc2)ncn1 [6-(4-Chloro-phenyl)-pyrimidine-4-carboxylic acid pyridin-3-yl-amide] | 67.93
32 | O=C(Nc1cncnc1)c1cc(-c2ccc(Cl)cc2)ncn1 [6-(4-Chloro-phenyl)-pyrimidine-4-carboxylic acid pyrimidin-5-ylamide] | 56.49
33 | C[C@H](NC(=O)c1cc(-c2cc(Cl)ccc2F)ncn1)c1ccccc1 [6-(5-Chloro-2-fluoro-phenyl)-pyrimidine-4-carboxylic acid ((S)-1-phenyl-ethyl)-amide] | 68.66
34 | O=C(Nc1cccnc1)c1cc(-c2cc(Cl)ccc2F)ncn1 [6-(5-Chloro-2-fluoro-phenyl)-pyrimidine-4-carboxylic acid pyridin-3-yl-amide] | 84.21
35 | O=C(O)c1cc(-c2ccc3ccccc3c2)ncn1 [6-Naphthalen-2-yl-pyrimidine-4-carboxylic acid] | 96
36 | N[C@@H](CCCCNC(=O)c1cc(-c2ccc(Cl)c(Cl)c2)ncn1)C(=O)O [(2S)-2-amino-6-{[6-(3,4-dichlorophenyl)pyrimidin-4-yl]formamido}hexanoic acid] | 85
37 | O=C1NC(=O)[C@@H]2CN(C(=O)c3cc(-c4ccc(Cl)c(Cl)c4)ncn3)C[C@H]12 [(3aS,6aR)-5-[6-(3,4-Dichloro-phenyl)-pyrimidine-4-carbonyl]-tetrahydro-pyrrolo[3,4-c]pyrrole-1,3-dione] | 95.73
38 | O=C(c1cc(-c2ccc(Cl)c(Cl)c2)ncn1)N1CCc2ccc(Cl)cc21 [(6-Chloro-2,3-dihydro-indol-1-yl)-[6-(3,4-dichloro-phenyl)-pyrimidin-4-yl]-methanone] | 98.22
39 | N[C@H]1CCN(C(=O)c2cc(-c3ccc(Cl)c(Cl)c3)ncn2)C1 [((S)-3-amino-pyrrolidin-1-yl)-[6-(3,4-dichloro-phenyl)-pyrimidin-4-yl]-methanone] | 93.99
40 | NC(=O)[C@H]1CCCN1C(=O)c1cc(-c2ccc(Cl)c(Cl)c2)ncn1 [(R)-1-[6-(3,4-Dichloro-phenyl)-pyrimidine-4-carbonyl]-pyrrolidine-2-carboxylic acid amide] | 101
41 | O=C(N[C@H](CO)C(=O)O)c1cc(-c2ccc(Cl)c(Cl)c2)ncn1 [(R)-2-{[6-(3,4-Dichloro-phenyl)-pyrimidine-4-carbonyl]-amino}-3-hydroxy-propionic acid] | 91.12
